Results as given in patent US8647845B2, “Method for producing sugar” (Asahi Group Holdings, Ltd., priority 2008, dated 2014).

Biological target: T1, sucrase (Saccharomyces cerevisiae, UniProt P00724)
T1 construct: S. cervisiae (Taiken 396 strain) which is a general yeast having sucrase; endogenous in cells; host or cells: Saccharomyces cerevisiae Taiken 396 strain (live yeast in sugarcane-pressed juice)
T1 sequence (P00724 20-532): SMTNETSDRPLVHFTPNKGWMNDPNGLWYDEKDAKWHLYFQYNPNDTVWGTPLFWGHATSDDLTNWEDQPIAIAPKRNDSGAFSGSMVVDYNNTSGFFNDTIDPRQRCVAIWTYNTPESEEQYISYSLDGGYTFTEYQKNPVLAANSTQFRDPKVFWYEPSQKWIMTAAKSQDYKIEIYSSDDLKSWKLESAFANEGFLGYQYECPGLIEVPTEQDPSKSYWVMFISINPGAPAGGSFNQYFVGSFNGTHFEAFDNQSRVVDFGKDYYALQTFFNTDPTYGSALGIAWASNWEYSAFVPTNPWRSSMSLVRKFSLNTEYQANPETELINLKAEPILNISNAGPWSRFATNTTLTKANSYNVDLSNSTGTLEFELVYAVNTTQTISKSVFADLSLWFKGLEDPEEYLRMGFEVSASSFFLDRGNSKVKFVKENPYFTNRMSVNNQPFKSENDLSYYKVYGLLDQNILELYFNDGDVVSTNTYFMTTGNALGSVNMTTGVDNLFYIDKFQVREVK
Assay: Fermentation test on sugarcane-pressed juice using sucrase inhibitor
Type: cell-based, S. cervisiae (Taiken 396 strain)
Conditions: 60 mM inhibitor
Protocol: S. cervisiae ([…] 396 strain) which is a general yeast having sucrase was planted in a sugarcane-pressed juice. Methyl-α-D-glucopyranoside serving as a sucrase inhibitor was added thereto at a concentration 60 mM. A fermentation test was conducted to examine the changes in the concentrations of sucrose, invert sugars, and ethanol over time. The fungal strain used for fermentation had been pre-precultured by shaking in 10 mL of a YM medium at 30° C. for 24 hours, and then further precultured by shaking in 500 mL of a YPD medium at 30° C. for 12 hours. The yeast was collected from the precultured medium by centrifugation. 100 mL of the pressed juice (in the pressed juice, the sucrose concentration was 10.0%, and the invert sugar concentration was 3.0%) and 60 mM of methyl-α-D-glucopyranoside were placed in a 300-mL Erlenmeyer flask with a fermentation lock. The yeast collected from the precultured medium by centrifugation was added into the flask for fermentation. The fermentation was carried out by shaking at 30° C. at 120 rpm.

[1] = 6 hours after the fermentation was started

- sucrose ratio of the fermented liquid (8 hours after the fermentation was started): 94.0%
- sucrose decomposition speed (sugarcane-pressed juice (sucrose 10.0%, invert sugar 3.0%), 30° C., compared with no inhibitor): made slow
SMILES: CO[C@H]1O[C@H](CO)[C@@H](O)[C@H](O)[C@H]1O [methyl-α-D-glucopyranoside]
- invert sugars converted into ethanol [1]: all the invert sugars were converted into ethanol
- sucrose remaining [1]: approximately half of the sucrose remained
